Test results taken from the supplement of paper PMC10307832.

How the values were obtained:
Experiment in all cases: relative viability (nuclei count vs DMSO), 5 days (fraction); higher = more cells survive
VX-11e + Vorinostat = compound: CC1=CN=C(N=C1C2=CNC(=C2)C(=O)N[C@H](CO)C3=CC(=CC=C3)Cl)NC4=C(C=C(C=C4)F)Cl [VX-11e] + O=C(CCCCCCC(=O)Nc1ccccc1)NO [Vorinostat] (partner 1 µM)
Method in brief: (§1)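 A single step with final 0.05% Triton X-100, 1% formaldehyde and 1 ug/ml Hoechst fixed the cells and stained nuclei 5 days after treatment. Lung cancer cell lines in 1536-well plates had been treated by pin tool the day after seeding with one drug alone or a fixed anchor-drug dose plus five library-drug doses (not always all listed) in √10 steps, and nuclei were counted on 4× images. Relative viability is the ratio of nuclei in treated wells to nuclei in vehicle wells, taken as the median of duplicate plates.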

VX-11e + Crizotinib = compound: CC1=CN=C(N=C1C2=CNC(=C2)C(=O)N[C@H](CO)C3=CC(=CC=C3)Cl)NC4=C(C=C(C=C4)F)Cl [VX-11e] + C[C@@H](Oc1cc(-c2cnn(C3CCNCC3)c2)cnc1N)c1c(Cl)ccc(F)c1Cl [Crizotinib] (partner 1 µM)
Method in brief: as §1

VX-11e + AZD7762 = compound: CC1=CN=C(N=C1C2=CNC(=C2)C(=O)N[C@H](CO)C3=CC(=CC=C3)Cl)NC4=C(C=C(C=C4)F)Cl [VX-11e] + NC(=O)Nc1cc(-c2cccc(F)c2)sc1C(=O)N[C@H]1CCCNC1 [AZD7762] (partner 0.2 µM)
Method in brief: as §1

VX-11e + Palbociclib = compound: CC1=CN=C(N=C1C2=CNC(=C2)C(=O)N[C@H](CO)C3=CC(=CC=C3)Cl)NC4=C(C=C(C=C4)F)Cl [VX-11e] + CC(=O)c1c(C)c2cnc(Nc3ccc(N4CCNCC4)cn3)nc2n(C2CCCC2)c1=O [Palbociclib] (partner 0.5 µM)
Method in brief: as §1

| Cell Line | relative viability (VX-11e + Vorinostat; first compound 0.04 µM) | relative viability (VX-11e + Vorinostat; first compound 0.1265 µM) | relative viability (VX-11e + Vorinostat; first compound 0.4 µM) | relative viability (VX-11e + Vorinostat; first compound 1.265 µM) | relative viability (VX-11e + Vorinostat; first compound 4 µM) | relative viability (VX-11e + Crizotinib; first compound 0.04 µM) | relative viability (VX-11e + Crizotinib; first compound 0.1265 µM) | relative viability (VX-11e + Crizotinib; first compound 0.4 µM) | relative viability (VX-11e + Crizotinib; first compound 1.265 µM) | relative viability (VX-11e + Crizotinib; first compound 4 µM) | relative viability (VX-11e + AZD7762; first compound 0.04 µM) | relative viability (VX-11e + AZD7762; first compound 0.1265 µM) | relative viability (VX-11e + AZD7762; first compound 0.4 µM) | relative viability (VX-11e + AZD7762; first compound 1.265 µM) | relative viability (VX-11e + AZD7762; first compound 4 µM) | relative viability (VX-11e + Palbociclib; first compound 0.04 µM) | relative viability (VX-11e + Palbociclib; first compound 0.1265 µM) | relative viability (VX-11e + Palbociclib; first compound 0.4 µM) | relative viability (VX-11e + Palbociclib; first compound 1.265 µM) | relative viability (VX-11e + Palbociclib; first compound 4 µM) |
| --- | --- | --- | --- | --- | --- | --- | --- | --- | --- | --- | --- | --- | --- | --- | --- | --- | --- | --- | --- | --- |
| NCI-H838 | 0.774 | 0.669 | 0.681 | 0.639 | 0.591 | 0.888 | 0.82 | 0.798 | 0.881 | 0.501 | 0.784 | 0.962 | 0.728 | 0.977 | 0.834 | 0.225 | 0.187 | 0.18 | 0.214 | 0.203 |
| NCI-H1355 | 0.472 | 0.617 | 0.591 | 0.52 | 0.345 | 1.1 | 0.993 | 1.09 | 0.875 | 0.479 | 0.757 | 0.695 | 0.45 | 0.615 | 0.368 | 0.432 | 0.382 | 0.382 | 0.319 | 0.216 |
| NCI-H1437 | 0.82 | 0.864 | 0.82 | 0.739 | 0.458 | 1.05 | 0.957 | 0.853 | 0.974 | 0.487 | 1.11 | 1.09 | 0.867 | 0.972 | 0.741 | 0.323 | 0.24 | 0.321 | 0.224 | 0.222 |
| NCI-H1651 | 0.526 | 0.557 | 0.55 | 0.517 | 0.569 | 0.916 | 0.821 | 0.826 | 0.768 | 0.812 | 0.331 | 0.399 | 0.464 | 0.47 | 0.377 | 0.526 | 0.493 | 0.492 | 0.449 | 0.498 |
| NCI-H1666 | 1.08 | 0.953 |  | 0.992 | 0.798 | 1.03 | 0.818 | 0.753 | 0.752 | 0.456 | 0.803 | 0.832 | 0.715 | 0.732 | 0.699 | 0.616 | 0.632 |  | 0.68 | 0.72 |
| NCI-H1734 | 0.71 | 0.779 | 0.593 | 0.449 | 0.341 | 0.67 | 0.584 | 0.652 | 0.606 | 0.296 | 0.525 | 0.532 | 0.307 | 0.334 | 0.296 | 0.342 | 0.382 | 0.355 | 0.327 | 0.224 |
| NCI-H1755 | 0.795 | 0.686 | 0.782 | 0.764 | 0.598 | 0.905 | 0.849 | 0.845 | 0.873 | 0.491 | 0.434 | 0.333 | 0.341 | 0.513 | 0.359 | 0.429 | 0.404 | 0.45 | 0.43 | 0.417 |
| NCI-H1915 | 0.469 | 0.493 | 0.526 | 0.607 | 0.43 | 0.945 | 0.82 | 0.919 | 0.788 | 0.548 | 0.719 | 0.719 | 0.596 | 0.791 | 0.554 | 0.546 | 0.465 | 0.481 | 0.433 | 0.217 |
| NCI-H1944 | 0.492 | 0.506 | 0.441 | 0.478 | 0.408 | 1.17 | 1.02 | 0.942 | 0.905 | 0.583 | 0.513 | 0.522 | 0.255 | 0.449 | 0.37 | 0.323 | 0.343 | 0.338 | 0.264 | 0.205 |
| NCI-H1975 | 0.736 | 0.724 | 0.664 | 0.677 | 0.465 | 0.972 | 0.962 | 0.95 | 0.963 | 0.407 | 0.657 | 0.721 | 0.562 | 0.57 | 0.378 | 0.543 | 0.411 | 0.169 | 0.391 | 0.17 |
